From patent US8460900B2, “Methods to degrade sludge from pulp and paper manufacturing” (Buckman Laboratories International, Inc., priority 2010, dated 2013)

Test system: CELLIC® CTec enzyme
Test: Cellulase activity of enzyme-surfactant solutions, carboxymethyl cellulose as substrate
Assay type: biochemical
Conditions: Table 3: 5 wt % surfactant + 10 wt % CELLIC CTec; for % Activity Increase: versus enzyme without surfactant; for Cellulase Activity (u/g): CMC substrate
Experimental: The experiments were set up for evaluating the effects of surfactants on enzymatic activity of CELLIC® CTec enzyme. The enzyme, surfactant, and water were mixed to form a solution containing 5 wt % surfactant and 10 wt % enzyme. For example, 1.0 g of CELLIC® CTec, 0.5 g of PLURONIC F108, and 8.5 g of deionized water were mixed to produce a solution containing 10 wt % enzyme and 5 wt % surfactant. The resulted enzyme-surfactant solutions were tested for cellulase activity. Carboxymethyl cellulose was used as the assay substrate. A control solution containing 10 wt % enzyme without surfactant was included for comparison.
Five PLURONIC surfactants with different HLB values are evaluated for their effects on the enzymatic activity of CELLIC® CTec in water solution. Each surfactant was mixed with the enzyme in water. The resulting solution was then assayed for cellulase activity using carboxymethyl cellulose (CMC) as the substrate. […] F108 enhanced the enzymatic activity by 22.3%.

| Substance | % Activity Increase | Cellulase Activity (u/g) |
| --- | --- | --- |
| Sorbitan mono-oleate [Sorbitan mono-oleate, non-ionic] | −2.3% | 321.5 u/g |
| Sorbitan mono-oleate ester [Sorbitan mono-oleate ester, non-ionic] | 7.3% | 353.1 u/g |
| Cocobis(2-hydroxyethyl)methyl ammonium chloride | 6.9% | 351.6 u/g |
